Source: US8729083B2, “Pyrazole compounds for controlling invertebrate pests” (BASF SE, priority 2008, dated 2014)

Columns and labels:
Format in all cases: in vivo
Megoura viciae = experiment: Vetch aphid (Megoura viciae), bean leaf disks in microtiterplates; details: foliar, 144 h, test solution 2500 mg/L, leaf disks sprayed with 2.5 μl, 6 days
Procedure: II.5 Vetch Aphid (Megoura viciae)
The active compounds were formulated in 1:3 (vol:vol) DMSO:water with different concentrations of formulated compounds.
Bean leaf disks were placed into microtiterplates filled with 0.8% agar-agar and 2.5 ppm OPUS™. The leaf disks were sprayed with 2.5 μl of the test solution and 5 to 8 adult aphids were placed into the microtiterplates which were then closed and kept at 23±1° C. and 50±5% relative humidity under fluorescent light for 6 days. Mortality was assessed on the basis of vital, reproduced aphids. Aphid mortality and fecundity was then visually assessed.

Aphis craccivora = experiment: Cowpea aphid (Aphis craccivora), spray on potted cowpea plants; details: sprayed, population reduction assessed after 24, 72 and 120 hours, read-out: mortality in comparison with untreated controls
Procedure: II.3 Cowpea Aphid (Aphis craccivora)
The active compounds were formulated in 50:50 (vol:vol) acetone:water. The test solution was prepared at the day of use.
Potted cowpea plants colonized with 100-150 aphids of various stages were sprayed after the pest population had been recorded. Population reduction was assesed after 24, 72, and 120 hours.

Myzus persicae [1] = experiment: Green peach aphid (Myzus persicae, mixed life stages), method b: electrostatic spray on bell pepper; details: 120 h, sprayed, after 5 days, read-out: mortality in comparison with untreated controls
Procedure: II.2 Green Peach Aphid (Myzus persicae, Mixed Life Stages)
(§1) The active compounds were formulated in cyclohexanone as a 10,0000 ppm solution supplied in 1.3 ml ABgene® tubes. These tubes were inserted into an automated electrostatic sprayer equipped with an atomizing nozzle and they served as stock solutions for which lower dilutions were made in 50% acetone:50% water (v/v). A nonionic surfactant (Kinetic®) was included in the solution at a volume of 0.01% (v/v).
Bell pepper plants at the first true-leaf stage were infested prior to treatment by placing heavily infested leaves from the main colony on top of the treatment plants. Aphids were allowed to transfer overnight to accomplish an infestation of 30-50 aphids per plant and the host leaves were removed. The infested plants were then sprayed by an automated electrostatic plant sprayer equipped with an atomizing spray nozzle. The plants were dried in the sprayer fume hood, removed, and then maintained in a growth room under fluorescent lighting in a 24-hr photoperiod at 25° C. and 20-40% relative humidity. Aphid mortality on the treated plants, relative to mortality on untreated control plants, was determined after 5 days.

Aphis gossypii = experiment: Cotton aphid (Aphis gossypii, mixed life stages), method b: electrostatic spray; details: 120 h, sprayed, after 5 days, read-out: mortality in comparison with untreated controls
Procedure: II.1 Cotton Aphid (Aphis gossypii, Mixed Life Stages)
as §1
Cotton plants at the cotyledon stage were infested with aphids prior to treatment by placing a heavily infested leaf from the main aphid colony on top of each cotyledon. Aphids were allowed to transfer overnight to accomplish an infestation of 80-100 aphids per plant and the host leaf was removed. The infested plants were then sprayed by an automated electrostatic plant sprayer equipped with an atomizing spray nozzle. The plants were dried in the sprayer fume hood, removed from the sprayer, and then maintained in a growth room under fluorescent lighting in a 24 hr photoperiod at 25° C. and 20-40% relative humidity. Aphid mortality on the treated plants, relative to mortality on untreated control plants, was determined after 5 days.

Anthonomus grandis = experiment: Boll weevil (Anthonomus grandis), eggs on insect diet in microtiter plates; details: 120 h, test solution 2500 mg/L, 20 μl sprayed onto diet, 5 days, read-out: mortality (egg and larval)
Procedure: II.6 Boll Weevil (Anthonomus grandis)
The compounds were formulated in 75:25 (vol:vol) water:DMSO.
For evaluating control of boll weevil (Anthonomus grandis) the test unit consisted of 24-well-microtiter plates containing an insect diet and 20-30 A. grandis eggs. Different concentrations of formulated compounds were sprayed onto the insect diet at 20 μl, using a custom built micro atomizer, at two replications. After application, the microtiter plates were incubated at 23±1° C. and 50±5% relative humidity for 5 days. Egg and larval mortality was then visually assessed.

Myzus persicae [2] = experiment: Green peach aphid (Myzus persicae) through systemic means, artificial diet under membrane; details: 72 h, pipetted into aphid diet, 3 days, read-out: mortality in comparison with untreated controls
From the text: II.9 Activity Against Green Peach Aphid (Myzus persicae)
For evaluating control of green peach aphid (Myzus persicae) through systemic means the test unit consisted of 96-well-microtiter plates containing liquid artificial diet under an artificial membrane.
The compounds were formulated using a solution containing 75% v/v water and 25% v/v DMSO. Different concentrations of formulated compounds were pipetted into the aphid diet, using a custom built pipetter, at two replications. After application, 5 to 8 adult aphids were placed on the artificial membrane inside the microtiter plate wells The aphids were then allowed to suck on the treated aphid diet and incubated at about 23+1° C. and about 50+5% relative humidity for 3 days. Aphid mortality and fecundity was then visually assessed.

Dichromothrips Corbetti = experiment: Vanda/orchid thrips (Dichromothrips corbetti), dipped orchid petals; details: after 72 hours, read-out: mortality in comparison with untreated controls
Procedure: II.11 Activity Against Vanda/Orchid Thrips (Dichromothrips Corbetti)
The active compounds were formulated as a 50:50 (vol:vol) acetone:water solution. Surfactant (Alkamuls EL 620) was added at the rate of 0.1% (vol/vol). Vanda orchids petals were cleaned, washed and air dried prior to spraying. Petals were dipped into the test solution for 3 seconds, air dried, placed inside a resealable plastic and inoculated with 20 adults. The treated petals were kept inside the holding room at 28-29° C. and relative humidity of 50-60%. Percent mortality was recorded after 72 hours.

Cc1c(C(=O)Nc2ccnnc2)cnn1CC(F)(F)F [Compound 1, 5-Methyl-1-(2,2,2-trifluoroethyl)-1H-pyrazole-4-carboxylic acid pyridazin-4-ylamide]
mortality at 2500 µg/mL (Megoura viciae): ≥ 90% | mortality at 300 ppm (Aphis craccivora): ≥ 90% | mortality at 300 ppm (Myzus persicae [1]): ≥ 75% | mortality at 300 ppm (Aphis gossypii): ≥ 75% | mortality at 2500 µg/mL (Anthonomus grandis): ≥ 50% | mortality at 2500 ppm (Myzus persicae [2]): 100% | mortality at 500 ppm (Dichromothrips Corbetti): ≥ 50%
